The target of data set [1] is ERα (Homo sapiens, UniProt P03372). As to the kind of experiment: biochemical.
Data set [2] deals with ERβ (Homo sapiens, UniProt Q92731). Kind of data set: biochemical.

Structures are written as SMILES. Structures can show the parent of a compound that is named as a salt. A value given as a limit tells only on which side of the number the result lay.

Sequence of ERα (P03372 whole entry): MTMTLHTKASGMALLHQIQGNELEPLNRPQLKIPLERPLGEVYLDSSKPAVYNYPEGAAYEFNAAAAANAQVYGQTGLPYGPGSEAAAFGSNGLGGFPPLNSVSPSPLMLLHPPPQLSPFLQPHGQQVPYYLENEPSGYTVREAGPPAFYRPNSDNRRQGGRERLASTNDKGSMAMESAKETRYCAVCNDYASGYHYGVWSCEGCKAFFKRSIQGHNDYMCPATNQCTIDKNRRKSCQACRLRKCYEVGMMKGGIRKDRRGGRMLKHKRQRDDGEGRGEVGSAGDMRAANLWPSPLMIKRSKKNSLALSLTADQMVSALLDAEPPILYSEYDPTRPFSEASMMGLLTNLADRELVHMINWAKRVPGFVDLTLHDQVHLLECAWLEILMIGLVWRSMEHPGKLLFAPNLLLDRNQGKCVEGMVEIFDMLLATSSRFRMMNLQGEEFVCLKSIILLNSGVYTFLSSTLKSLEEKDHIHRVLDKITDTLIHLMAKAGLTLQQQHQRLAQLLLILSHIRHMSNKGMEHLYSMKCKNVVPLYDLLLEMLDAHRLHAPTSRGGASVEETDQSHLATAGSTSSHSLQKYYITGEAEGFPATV
Sequence of ERβ (Q92731 whole entry, species assumed): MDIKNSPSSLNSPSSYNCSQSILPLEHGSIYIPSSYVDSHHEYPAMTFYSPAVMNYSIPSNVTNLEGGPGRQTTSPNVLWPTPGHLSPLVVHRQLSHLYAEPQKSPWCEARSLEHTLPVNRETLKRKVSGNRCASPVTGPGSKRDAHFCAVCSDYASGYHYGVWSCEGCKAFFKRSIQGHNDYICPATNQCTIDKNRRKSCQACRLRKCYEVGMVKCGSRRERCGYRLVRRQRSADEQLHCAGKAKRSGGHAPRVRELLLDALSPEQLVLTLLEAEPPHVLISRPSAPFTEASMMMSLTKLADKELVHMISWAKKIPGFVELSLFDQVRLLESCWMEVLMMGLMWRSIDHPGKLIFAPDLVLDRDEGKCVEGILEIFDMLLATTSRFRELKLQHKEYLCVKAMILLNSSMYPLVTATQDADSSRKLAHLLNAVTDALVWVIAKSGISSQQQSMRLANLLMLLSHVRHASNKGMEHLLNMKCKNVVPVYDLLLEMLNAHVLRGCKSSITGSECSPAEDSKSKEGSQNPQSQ

`O/N=C/c1ccc(-c2ccc(O)c(F)c2)cc1Cl` [Example 37, 3-Chloro-3′-fluoro-4′-hydroxy-1,1′-biphenyl-4-carbaldehyde oxime] returned a melting point of 198 to 200 °C. In data set [1], this molecule displayed an IC50 of 1910 nM. This molecule also displayed an IC50 in data set [2] of 54 nM.
In the same order, the values of `Cc1cc(O)ccc1-c1ccc(/C=N/O)c(Cl)c1` [Example 39, 3-Chloro-4′-hydroxy-2′-methyl-1,1′-biphenyl-4-carbaldehyde oxime] are 169 to 171 °C, 174 nM and 27 nM.
Take `O/N=C/c1c(Cl)cc(-c2ccc(O)c(F)c2)cc1Cl` [Example 55, 3,5-Dichloro-3′-fluoro-4′-hydroxy-1,1′-biphenyl-4-carbaldehyde oxime]: the melting point was in the range of 185 to 190 °C.
Still for that read-out and setting: in the case of `O/N=C/c1ccc(-c2ccc(O)c(F)c2)c(Cl)c1Cl` (as salt: salt) [Example 57, 2,3-Dichloro-3′-fluoro-4′-hydroxy-1,1′-biphenyl-4-carbaldehyde oxime] it was 225 to 227 °C.
Regarding `Cc1cc(-c2ccc(O)cc2)ccc1/C=N/O` [Example 29, 4′-Hydroxy-3-methyl[1,1′-biphenyl]-4-carbaldehyde oxime], the melting point was in the range of 195 to 197 °C. In data set [1], this molecule showed an IC50 of 3190 nM. This molecule also displayed an IC50 in data set [2] of 163 nM.
In the same order, the values of `O/N=C/c1ccc(-c2ccc(O)cc2)c(Cl)c1` [Example 34, 2-Chloro-4′-hydroxy-1,1′-biphenyl-4-carbaldehyde oxime] are 178 to 179 °C, 398 nM and 98 nM.
In turn, `O/N=C/c1ccc(-c2ccc(O)cc2)c(F)c1` [Example 32, 2-Fluoro-4′-hydroxy-1,1′-biphenyl-4-carbaldehyde oxime] registered a melting point of 178 to 180 °C. In addition, the IC50 in data set [1] was determined as 3450 nM. It took 421 nM to reach half-maximal inhibition in data set [2] (IC50).
In the same order, the values of `O/N=C/c1ccc(-c2ccc(O)cc2)cc1Cl` [Example 31, 3-Chloro-4′-hydroxy[1,1′-biphenyl]-4-carbaldehyde oxime] are 187 to 189 °C, 1540 nM and 85 nM.
In turn, `O/N=C/c1ccc(-c2ccc(O)cc2)c(Cl)c1Cl` [Example 56, 2,3-Dichloro-4′-hydroxy-1,1′-biphenyl-4-carbaldehyde oxime] came in with a melting point of 208 to 210 °C. In data set [1], this molecule came in with an IC50 of 851 nM. The IC50 in data set [2] is 49 nM.
Turning to `O/N=C/c1ccc(-c2ccc(O)cc2)cc1F` [Example 33, 3-Fluoro-4′-hydroxy-1,1′-biphenyl-4-carbaldehyde oxime], the values for the IC50 in data set [1] and in data set [2] were 1720 nM and 161 nM, respectively.
For the molecule `COc1cc(-c2ccc(O)cc2)ccc1/C=N/O` [Example 35, 4′-Hydroxy-3-methoxy-1,1′-biphenyl-4-carbaldehyde oxime], the melting point was 228 to 230 °C. The IC50 in data set [1] is 7990 nM. Also, in data set [2], the IC50 came to 1060 nM.
On to `O/N=C/c1c(Cl)cc(-c2ccc(O)cc2)cc1Cl` [Example 54, 3,5-Dichloro-4′-hydroxy-1,1′-biphenyl-4-carbaldehyde oxime], for which the melting point lay within 183 to 186 °C. The IC50 in data set [1] is 64 nM. In data set [2], this molecule yielded an IC50 of 8 nM.
The matching figures for `Cc1cc(/C=N/O)ccc1-c1ccc(O)cc1` [Example 36, 4′-Hydroxy-2-methyl-1,1′-biphenyl-4-carbaldehyde oxime]: 169 to 171 °C, 2820 nM and 585 nM.
The matching figures for `O/N=C/c1ccc(-c2cc(F)c(O)c(F)c2)cc1Cl` [Example 38, 3-Chloro-3′, 5′-fluoro-4′-hydroxy-1,1′-biphenyl-4-carbaldehyde oxime]: 216 to 219 °C, over 7000 nM and 268 nM.
For the molecule `O/N=C/c1ccc(-c2ccc(O)c(F)c2)c(Cl)c1Cl` [Example 57, 2,3-Dichloro-3′-fluoro-4′-hydroxy-1,1′-biphenyl-4-carbaldehyde oxime], the IC50 in data set [1] amounted to 1960 nM; in data set [2] it was 81 nM.
`O/N=C/c1ccc(-c2ccc(O)cc2)cc1` [Example 30, 4′-Hydroxy[1,1′-biphenyl]-4-carbaldehyde oxime] had a melting point of 207 to 210 °C. The molecule further showed an IC50 in data set [1] of over 5000 nM. This molecule also gave an IC50 in data set [2] of 3840 nM.

The values above are taken from patent US7279600B2, “Hydroxy-biphenyl-carbaldehyde oxime derivatives and their use as estrogenic agents” (Wyeth, priority 2003, dated 2007).
